What was measured:
[1] = test system: PC3-M cells; test: KBU2046-biotin labelling of cells (FITC-streptavidin); assay type: cell-based, human; settings: 1 μM KBU2046-biotin +/- 10 μM free KBU2046
Experimental: (§1) PC3-M cells were pre-treated with 10 μM KBU2046 or with KBU2046-biotin for three days, and single cell motility assays conducted. Data are the mean±SEM of a single experiment of N≥24 cells; * denotes Student's 2-sided t-test p-value </=0.05 compared to control. […] PC3-M cells were labeled with 1 μM KBU2046-biotin+/−10 μM free KBU2046, followed by detection with FITC-streptavidin, and visualization by fluorescent microscopy (with equal exposure times). […] KBU2046-biotin was hybridized to ProtoArray® Human Protein Microarray's at 0.5 and 10 μM with and without 10 fold excess free KBU2046.

[2] = biological target: recombinant CSRP1 (Homo sapiens, UniProt P21291); test: Pull down of recombinant CSRP1 by KBU2046-biotin; assay type: binding
Experimental: This yielded 3 proteins, shown in table, for an initial hit rate of 0.03%. Next, free KBU2046 was needed to inhibit binding by >75%. Of the two remaining candidates, isovaleryl-CoA dehydrogenase (ICD) was eliminated. […] Cysteine and glycine-rich protein 1 (CSRP1) was deemed the top protein, though its binding characteristics at 10 μM+free KBU2046 were similar to ICD, albeit not as extreme.

[3] = test system: array of over 9,000 human proteins; test: ProtoArray Human Protein Microarray binding assay
Experimental: as §1
Protein Microarray Binding Assay. The ProtoArray® assay, using the Human Protein Microarray platform, was performed by Invitrogen.
First, the positive control used in protein arrays was staurosporine.

[4] = test system: human prostate, breast, colon and lung cancer cells; test: Single cell migration (motility) assay; assay type: cell-based; settings: PC3-M cells, 10 μM, three days
From the text: FIG. 1a is a schematic flow of probe synthesis and development strategy. […] Values are mean±SEM of a single experiment in replicates of N=4, with similar findings in multiple separate experiments (also N=4). […] Values are mean±SEM of a single experiment in replicates of N=24, with similar findings in a separate experiment (also N=24). *Denotes Student's t test P value <0.05, compared to controls. […] Values are mean±SEM from N>2 separate experiments, each in replicates of N=3. […] Values are the mean±SD number of total, CFU-GM, CFU-GEMM or BFU-E colonies at 14 days after treatment with KBU2046, from a single experiment in replicates of N=2. […] Values are the mean±SD of a single experiment, with similar results seen in a separate experiment, both in replicates of N=2.
Cell Migration Assays. Single cell motility assays were conducted by adding 10^4 cells to 35 mm tissue culture dishes (BD Falcon) coated with collagen I (BD Biosciences), incubating at 37° C. in 5% CO2, performing time-lapse imaging using a Biostation (Nikon Instruments), tracking the path of N≥35 cells using ImageJ software and the Manual Tracker plug-in, and using Chemotaxis and Migration Tool plug-in for data analysis.

[5] = test system: human PCa PC3-M cell orthotopic implants; settings: murine orthotopic model; cited from earlier work
[6] = test system: protein phosphorylation in PC3-M and PC3 cells; test: KinomeView phospho-motif antibody screen; assay type: cell-based, human; settings: 10 μM, 3 days, ±TGFβ
From the text: Seeking to identify KBU2046's biological target(s), alternative methods were pursued. The KinomeView® panel of antibodies (Cell Signaling Technology, Inc.) detect established protein phosphorylation motifs, and were used to probe for KBU2046-induced changes in protein phosphorylation (FIG. 4a and FIG. 17). Phosphoprotein changes that met the following criteria were prioritized: were induced in cells in vitro as well as in tumors of treated mice (from FIG. 2a), that counteracted transforming growth factor β (TGFβ)-induced effects, and that were reproducible. TGFβ is ubiquitous in vivo, is known to increase PCa cell invasion (Huang, X. et al., Cancer Research 65, 3470-8 (2005)), and KBU2046's anti-invasion efficacy remains in spite of TGFβ-stimulated increases in cell invasion (FIG. 18). Genistein was evaluated under identical treatment conditions for comparison. […] In tumors of treated animals KBU2046 had this same effect on this 83 kDa protein band (green arrow in FIG. 17a). The high molecular selectivity of KBU2046 was further supported by its failure to inhibit over 400 different protein kinases and 20 phosphatases examined, in three different in vitro assay systems (see, Example 1).
Phospho-proteomic Analysis. The Kinoview™ and PhosphoScan™ assays were performed by Cell Signaling Technology Inc. […]

[7] = test system: matrix metalloproteinase 2 (MMP-2) expression; settings: prospective human trial; cited from earlier work
[8] = test system: PC3-M cells; test: Boyden chamber cell invasion assay, PC3-M cells; assay type: cell-based, human; settings: 10 μM compound, 3 days
Experimental: Following the synthetic strategy outlined in FIG. 1a, 4′,5,7-trihydroxyisoflavone was used as the chemical scaffold. […] Note, demethylation within the cell cannot be predicted. Therefore, the loss of function was considered to be informative for methylated compounds. […] This adds further evidence of the importance of the C4′-hydroxyl for activity. […] For cell invasion, PC3-M cells were treated with 10 μM compound for a total of 3 days, and cell invasion assays were run at the end of the 3 day period, in the presence of compound. Values are the mean±SEM of three separate experiments, each run in replicates of N=3. […] Values are the mean±SEM of a single experiment, in replicates of N=4, repeated at least once (also N=4). […] The initial structure-activity relationship (SAR) data informed the second round of compound synthesis. […] Compared to 4′,5,7-trihydroxyisoflavone, KBU2046 is non-planar, lacks hydroxyl groups, and particularly those that mediate ER binding, is halogen-substituted, and has a distinctly different biological profile. These characteristics place KBU2046 in a chemically distinct class, compared to the starting compound.
Cell Invasion Assays. Boyden chamber cell invasion assays were performed as previously described^9, using either denatured collagen (BD Biosciences) or type IV human collagen (BD Biosciences), with the experiments repeated, each in N=4 replicates. In some experiments, as indicated, cells were transfected with an expression plasmid, using Lipofectamine 2000™ (Invitrogen), or with siRNA, using DharmaFect Duo (Thermo Scientific) and co-transfected with β-Galactosidase (Plasmid pCMV⋅SPORT-βgal; Life Technology).
The initial round of synthesis was designed to examine the removal of individual chemical fragments. In this manner, the importance of these functional groups in mediating efficacy (inhibition of cell invasion) could be determined. […] Initial assays were performed with PC3 and PC3-M cells. However, as these studies yielded similar findings, subsequent screening assays utilized only PC3-M cells. In designing chemical synthetic routes, priority was given to efficacy and toxicity parameters. […] These additional design features included removal of fragments that mediated genistein binding to the estrogen receptor (ER), as determined by ER-genistein 3D x-ray crystal structures (Protein Data Base IDs: 1X7R and 1X7J, for crystal structures of ERα and ERβ with bound genistein, respectively). These features also included removal of chemical fragments that are considered to increase susceptibility to rapid metabolism, for example by the cytochrome P450 (CYP) pathway. The final feature involved incorporation of chemical characteristics previously shown to be associated with effective drugs and which together generally impart more favorable pharmacologic properties, including those described by Lipinski et al. (Lipinski, C. A. et al., Adv Drug Deliv Rev 46, 3-26 (2001)).

[9] = test system: phosphorylation of p38 MAPK or of HSP27; settings: cited from earlier work
[10] = test system: human prostate cells (PC3, PC3-M, 1532NPTX, 1542NPTX, 1532CPTX, 1542CPTX); settings: nanomolar concentrations; cited from earlier work
[11] = biological target: T1, MKK4 (Homo sapiens, UniProt P45985, S257E/T261E); settings: low nanomolar concentrations; cited from earlier work
T1 sequence (P45985 37-399 S257E/T261E): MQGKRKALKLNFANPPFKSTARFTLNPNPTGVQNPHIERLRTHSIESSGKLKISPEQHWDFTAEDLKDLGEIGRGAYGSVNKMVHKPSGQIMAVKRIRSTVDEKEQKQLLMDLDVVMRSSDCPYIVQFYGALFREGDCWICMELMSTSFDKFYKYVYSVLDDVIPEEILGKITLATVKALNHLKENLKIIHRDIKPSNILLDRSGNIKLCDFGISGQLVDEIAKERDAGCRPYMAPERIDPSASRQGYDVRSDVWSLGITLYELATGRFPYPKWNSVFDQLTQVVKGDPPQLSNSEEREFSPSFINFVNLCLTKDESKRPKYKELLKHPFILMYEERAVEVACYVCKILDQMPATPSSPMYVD

Chain of recombinant CSRP1 (P21291 whole entry): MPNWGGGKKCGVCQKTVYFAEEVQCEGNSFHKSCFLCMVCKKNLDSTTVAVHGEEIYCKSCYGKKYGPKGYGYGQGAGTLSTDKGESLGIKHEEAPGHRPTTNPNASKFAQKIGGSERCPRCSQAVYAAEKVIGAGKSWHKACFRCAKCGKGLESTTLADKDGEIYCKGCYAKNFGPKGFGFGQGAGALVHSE

With `O=C(CCCC[C@@H]1SC[C@@H]2NC(=O)N[C@@H]21)NCCOCCOCCOCCOc1ccc2c(c1)OCC(c1ccc(F)cc1)C2=O` (stereo partly drawn) [KBU2046-biotin] the labelling of cells [1] was “labels permeablized cells in a manner that can be competed off”, the “pull down of recombinant CSRP1” value [2] was “no evidence of such was observed” and the “binding to HSP90β and CDC37 on the protein arrays” value [3] was “not bound”. The “binding to protein arrays” value [3] was “lack of binding”, the initial hit rate ([3]; 0.5 and 10 μM) was 0.03% and the “number of proteins meeting binding criteria” value ([3]; 0.5 and 10 μM, absence of free KBU2046) was 3. The single cell motility [4] was “biologically active”.

In the case of `O=c1c(-c2ccc(O)cc2)coc2cc(O)cc(O)c12` [genistein, 4′,5,7-trihydroxyisoflavone], the inhibition of metastasis [5] is listed as “inhibit”, the “changes in protein phosphorylation” value [6] is listed as “induced widespread changes in protein phosphorylation” and the “MMP-2 expression in prostate tissue” value [7] is listed as “downregulates matrix metalloproteinase 2 (MMP-2) expression in prostate tissue”. For the same compound, the “effect on cell invasion” value [8] was “had anti-invasion efficacy”, the “downstream phosphorylation of p38 MAPK and HSP27” value [9] was “inhibiting downstream phosphorylation of p38 MAPK” and the “inhibition of human PCa cell invasion in vitro” value [10] was “inhibit human prostate cancer (PCa) cell invasion in vitro”. For the same compound, the “inhibition of MKK4 kinase activity” value [11] was “inhibited the kinase activity”.

In the case of `CN[C@@H]1C[C@H]2O[C@@](C)([C@@H]1OC)n1c3ccccc3c3c4c(c5c6ccccc6n2c5c31)C(=O)NC4` [staurosporine, reference compound], the “number of proteins bound at levels >/=10 fold above background” value ([3]; positive control) is reported as 214.

— patent US20210293825A1, “METHODS FOR PRECISION THERAPEUTIC TARGETING OF HUMAN CANCER CELL MOTILITY AND KITS THEREOF” (UNITED STATES GOVERNMENT AS REPRESENTED BY THE DEPARTMENT …, priority 2018, published 2021)
